Results as given in US20240150396A1 (The Texas A&M University System, priority 2021, published 2024).
Where “and” joins values, the source holds several entries; their conditions need not be identical. Equal values may be shown once. Read-outs that look alike come from different tables or passages of the source.

Tests used:
[1] = test system: T. cruzi (Ca-I/72) in C2C12 murine cardiomyoblasts; assay: T. cruzi-infected murine cardiomyoblasts (C2C12); format: cell-based, Trypanosoma cruzi; conditions: C2C12 murine cardiomyoblasts, read-out: EC50 T. cruzi-infected cardiomyoblasts
How it was run: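 C2C12 mouse cardiomyoblasts infected with T. cruzi Ca-I/72 (10^3 and 10^4 parasites) and exposed to 3-fold serial dilutions of inhibitor from a 10 μM maximum, 48 h at 37° C. After PFA fixation and DAPI staining, automated imaging quantified parasites and host cells, giving EC50 and host CC50.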

[2] = test system: T. b. brucei procyclic forms; assay: Growth of axenic cultures of T. b. brucei procyclic forms (PCFs); format: cell-based, Trypanosoma brucei brucei; conditions: axenic culture; read-out: EC50 T. b. brucei PCF
human dermal fibroblasts = assay: Human cell toxicity, resazurin viability; format: cell-based
How it was run: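 Primary human dermal fibroblasts, 2400 cells/well, exposed in duplicate to inhibitors at final 0.001-0.1 mM in 1% DMSO (1% DMSO control) for 48 h at 37 °C. Resazurin then added and viability read by fluorescence (544/590 nm) after further 24 h.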

[3] = test system: C2C12 mouse cardiomyoblast cell line; assay: Host cell cytotoxicity in the T. cruzi infection model; format: cell-based; conditions: host cardiomyoblasts; read-out: C2C12 Cytotoxicity CC50
How it was run: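 C2C12 murine cardiomyoblasts infected with T. cruzi were incubated with compound 48 h at 37 °C, fixed in 2% PFA and stained with 5 μg/ml DAPI. Automated microscopy imaging quantified host cells and parasites separately; host cytotoxicity derived as CC50.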

[4] = Thiolation of inhibitors with glutathione, LCMS; format: physicochemical; conditions: 1 mM glutathione, 0.5 mM compound, Tris pH 8.0, 10% DMSO, room temperature
Description: Samples were analyzed by HPLC-MS (as described above) by injecting 0.01 mL aliquots onto a Luna […] C18(2) 100 Å, 4.6 mm, 50 mm column (Phenomenex) using the HPLC method described in the chemistry section at 0-6 h time points. […] Integration of the chromatographic peaks of the inhibitors and their GSH adducts at each time point was used to determine the rate of GSH adduct formation.

human cathepsin S = human cathepsin S (Homo sapiens (Human), UniProt P25774); conditions: Ref. 32; read-out: apparent IC50 Human Cathepsin S; cited from earlier work
[5] = test system: T. cruzi epimastigotes (strain Y); conditions: Ndao et al. (2014), read-out: trypanocidal activity EC50; cited from earlier work
[6] = test system: T. cruzi epimastigotes (strain Y); assay: Growth of axenic cultures of T. cruzi epimastigotes; conditions: epimastigotes
Description: Selected cruzain inhibitors in axenic cell cultures of Trypanosoma brucei brucei (procyclic trypomastigotes; ATCC PRA-381) and Trypanosoma cruzi (epimastigote forms; strain Y, ATCC 50832GFP) were tested. T. b. brucei is grown in SDM-79 medium, and T. cruzi is grown in ATCC medium (1029 LIT medium). Both media included fetal calf serum (10%) and penicillin/streptomycin (50 U/mL). […] T. brucei and T. cruzi (5 mL in flask cultures) at 26° C. were seeded at ˜3×10^6 cells, and diluted daily maintaining a mid-log growth phase for up to 100 hrs. Cell counts were scored using a Z2 Coulter Counter. After each cell dilution, fresh compound or an equal volume of DMSO (control samples), was supplemented into the cultures. […] Cruzain inhibitors where the highest concentration reflects the upper limit of solubilities of the inhibitors in 1% (v/v) DMSO solutions were evaluated. These inhibitors are likely to bind to proteins in fetal calf serum, and for these reasons, fresh inhibitors were added each time cells were re-fed.
Selected cruzain inhibitors were evaluated in axenic cell cultures of T. b. brucei and T. cruzi. Procyclic trypomastigotes of T. b. brucei (ATCC PRA-381) were grown in the SDM-79 medium at 26° C., and bloodstream forms (ATCC PRA-383) were grown at 37° C. in the HMI-9 medium at 5% C02. T. cruzi (epimastigote forms, strain Y, ATCC 50832GFP) was grown in the ATCC medium (1029 LIT medium). Both forms of T. b. brucei and T. cruzi were grown in media containing 10% fetal bovine serum (FBS) and penicillin/streptomycin (50 U mL^−1). […] Control samples contained equal amounts of DMSO. T. b. brucei and T. cruzi (5 mL in flask cultures) were seeded at ˜3×10^6 cells and diluted daily, maintaining a mid-log growth phase for up to 120 h. […] After each cell dilution, fresh compound or an equal volume of DMSO (control samples) was supplemented into the cultures, while maintaining a constant concentration of each inhibitor. Cell counts were scored using a Z2 Coulter Counter.

[7] = test system: T. b. brucei bloodstream forms; assay: Growth of axenic cultures of T. b. brucei bloodstream forms (BSFs); conditions: read-out: EC50 T. b. brucei BSF; axenic culture
Description: Selected cruzain inhibitors were evaluated in axenic cell cultures of T. b. brucei and T. cruzi. Procyclic trypomastigotes of T. b. brucei (ATCC PRA-381) were grown in the SDM-79 medium at 26° C., and bloodstream forms (ATCC PRA-383) were grown at 37° C. in the HMI-9 medium at 5% C02. […] Both forms of T. b. brucei and T. cruzi were grown in media containing 10% fetal bovine serum (FBS) and penicillin/streptomycin (50 U mL^−1). […] Control samples contained equal amounts of DMSO. T. b. brucei and T. cruzi (5 mL in flask cultures) were seeded at ˜3×10^6 cells and diluted daily, maintaining a mid-log growth phase for up to 120 h. […] After each cell dilution, fresh compound or an equal volume of DMSO (control samples) was supplemented into the cultures, while maintaining a constant concentration of each inhibitor. Cell counts were scored using a Z2 Coulter Counter.
In vitro Cell Assays. Bloodstream form T. b. brucei strain SM427 was grown in HM1-9 medium that included fetal bovine serum (10%) and antibiotics (100 U/mL penicillin-streptomycin, Gibco™). Inhibitors dissolved in 100% (v/v) DMSO stock solutions were added at final concentrations of 0.5-20 μM (final concentrations of DMSO were <1% (v/v)). T. b. brucei were seeded at ˜1×10^6 cells at 37° C., and diluted daily to maintain a log phase of growth for up to 96 h. […] After each dilution, the cell cultures were supplemented with inhibitor or DMSO (control) to keep concentrations constant. Cell density was determined and graphed as previously reported.^36 Trypanosomes were quantified using a Z2 Coulter Counter, and values of EC50 were determined after 3-4 days of treatment by the interpolation method of Huber and Koella.^37

human cathepsin S, sequence (P25774 115-331): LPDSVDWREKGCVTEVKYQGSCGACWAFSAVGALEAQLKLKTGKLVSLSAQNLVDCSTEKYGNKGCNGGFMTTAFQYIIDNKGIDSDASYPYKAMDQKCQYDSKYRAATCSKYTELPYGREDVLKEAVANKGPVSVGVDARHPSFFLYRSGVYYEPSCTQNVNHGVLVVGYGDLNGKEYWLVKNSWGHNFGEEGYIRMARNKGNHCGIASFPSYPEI

CN1CCN(C(=O)N[C@@H](Cc2ccccc2)C(=O)N[C@H](/C=C/S(=O)(=O)c2ccccc2)CCc2ccccc2)CC1 [Compound K11777, reference compound]
EC50 ([1]; listed as K777): 38 ± 9 nM | EC50 [1]: 700 nM | EC50 [2]: 2000 nM and 2300 nM and 1700 nM | EC50 (human dermal fibroblasts): 70000 nM | toxicity in human dermal fibroblasts, concentration (human dermal fibroblasts; concentration at which toxicity was or was not seen): 70 µM | CC50 (human dermal fibroblasts; human dermal fibroblasts, read-out: Human Cell Cytotoxicity CC50): 60000 to 100000 nM | CC50 [3]: > 10000 nM | Rate of Thiolation, k [4]: 0.00467 ± 0.0067 M⁻¹ s⁻¹ | IC50 (human cathepsin S): 0.6 nM | EC50 [5]: 10000 to 100000 nM | T. cruzi axenic culture EC50 [6]: poorly effective | EC50 ([6]; read-out: T. cruzi axenic culture EC50): ~60000 nM | EC50 [7]: 90 ± 60 nM
